US20190336537A1, “GENERATING ATRIAL AND VENTRICULAR CARDIOMYOCYTE LINEAGES FROM HUMAN PLURIPOTENT STEM CELLS” (UNIVERSITY HEALTH NETWORK, priority 2016, published 2019)

Legend:
Type in all cases: cell-based, human
[1] = system: HES3 NKX2-5:GFP reporter hESC line derived cardiomyocytes; assay: qRT-PCR analysis of atrial and ventricular gene expression in day 20 hPSC-derived cardiomyocytes
[2] = system: HES3 NKX2-5:GFP hESC-derived mesoderm; assay: Specification of mesoderm populations to an atrial fate by ROH or RA (day 20 flow cytometry and qRT-PCR)
Method: To determine if the ALDH^+ cells can synthesize RA, the ALDH^+PDGFRalpha^+ and ALDH^− PDGFRalpha^+ fractions were isolated from the day 4 3B/2A-induced population, and the cells were cultured as aggregates in retinol (ROH), RA, or DMSO (control) for 24 hr (FIGS. 3A and 3B). ALDH1A2 expression segregated to the ALDH^+ fraction, confirming the validity of aldefluor-based sorting strategy for isolating RALDH2-expressing cells (FIG. 3C).
(§1) For cardiac differentiation, we used a modified version of our embryoid body (EB)-based protocol (Kattman et al., 2011). hPSC populations at 80%-90% confluence were dissociated into single cells (TrypLE, ThermoFisher) and re-aggregated to form EBs in StemPro-34 media (ThermoFisher) containing penicillin/streptomycin (1%, ThermoFisher), L-glutamine (2 mM, ThermoFisher), trans-ferrin (150 μg/ml, ROCHE), ascorbic acid (50 μg/ml, Sigma), and monothioglycerol (50 μg/ml, Sigma), ROCK inhibitor Y-27632 (10 μM, TOCRIS) and rhBMP4 (1 ng/ml, R&D) for 18 h on an orbital shaker. At day 1, the EBs were transferred to mesoderm induction media consisting of StemPro-34 with above supplements (-ROCK inhibitor Y-27632) and rhBMP4, rhActivinA (R&D) and rhbFGF (5 ng/ml, R&D) at the indicated concentrations. At day 3, the EBs were harvested, washed with IMDM and transferred to cardiac mesoderm specification media consisting of StemPro-34, the Wnt inhibitor IWP2 (1 μM, TOCRIS) and rhVEGF (10 ng/mL, R&D). At day 5, the EBs were transferred to Stem Pro-34 with rhVEGF (5 ng/ml) for another 7 days and then to Stem Pro-34 media without additional cytokines for further 8 days. At day 20, HES3-NKX2-5gfp/w-derived cardiomyocytes were analyzed and isolated based on the expression of NKX2-5:GFP and SIRPa and a lack of CD90. Cardiomyocytes generated from non-transgenic hPSC lines were analyzed and isolated as SIRPa+CD90− populations. Media was changed every 3 days. Cultures were incubated in a low oxygen environment (5% CO2, 5% O2, 90% N2) for first 12 days and a normoxic environment (5% CO2) for the following 8 days in total of 20 days. The EBs were cultured in ultra-low attachment 6-well dishes (Corning) throughout the differentiation for maintaining suspension cultures.
Following optimization, either ATRA (0.5 μM, Sigma) or retinol (2 μM, Sigma) was included in the cardiac mesoderm specification media from days 3-5 for the generation of atrial cardiomyocytes.
(§2) Day 2-6 EBs were dissociated with TrypLE for 2-4 min at room temperature (RT). Day 20 EBs were dissociated by incubation in Collagenase type 2 (0.5 mg/ml, Worthington) in HANKs buffer overnight at RT followed by TrypLE treatment as described above. The following antibodies were used for staining: anti-PDGFRa-PE (R&D Systems, 3:50), anti-CD235a-APC (BD PharMingen, 1:100), antiSIRPa-PeCy7 (Biolegend, 1:1000), anti-CD90-APC (BD PharMingen, 1:1000), anticardiac isoform of CTNT (ThermoFisher Scientific, 1:2000), or anti-myosin light chain 2 (Abcam, 1:1000). For unconjugated primary antibodies, the following secondary antibodies were used for detection: goat anti-mouse IgG-APC (BD Pharmigen, 1:250), or donkey anti-rabbit IgG-PE (Jackson ImmunoResearch, 1:250). Detailed antibody information is described in Table 2.
The Aldefluor™ assay (STEMCELL Technologies) was performed according to the instruction provided by the manufacturer. Briefly, day 2-6 EBs were dissociated as described above. […] Stained cells were analyzed as described above. […]

[3] = system: HES3 NKX2-5:GFP hESC-derived day 20 EB populations; assay: Flow cytometric and immunostaining analyses of day 20 EB populations (CTNT, MLC2V, NKX2-5, COUPTFII); design: frequency of NKX2-5+SIRPa+ cells in day 20 populations: dose or concentration left out as unconfirmed
Method: as §1, §2
For cell-surface marker analyses, cells were stained for 30 min at 4 degrees C. in FACS buffer consisting of PBS with 5% fetal calf serum (FCS) (Wisent) and 0.02% sodium azide. For intracellular staining, cells were fixed for 15 min at 4 degrees C. with 4% PFA in PBS followed by permeabilization using 90% methanol for 20 min at 4 degrees C. Cells were washed with PBS containing 0.5% BSA (Sigma) and stained with unconjugated primary antibodies in FACS buffer overnight at 4 degrees C. Stained cells were washed with PBS with 0.5% BSA and stained with secondary antibodies in FACS buffer for 1 h at 4 degrees C.
Stained cells were analyzed using the LSR II Flow cytometer (BD). For cell sorting, stained cells were kept in IMDM with 0.5% FCS and sorted using Influx (BD), FACSAriall (BD), MoFlo-XDP (BD) and FACSAria Fusion (BD) at the Sickids/UHN flow cytometry facility. Data were analyzed using FlowJo software (Tree Star).
Day 20 EBs were dissociated as described above and the cells plated onto 12 mm cover glasses (VWR) pre-coated with matrigel (25% v/v, BD). Cells were cultured for 3-5 days to enable the formation of adherent cell monolayers. Cells were fixed with
4% PFA in PBS for 10 min at room temperature and permeabilized with PBS containing 0.3% TritonX, 200 mM Glycine (Sigma) for 20 min at RT. Cells were blocked with PBS containing 10% FCS, 0.1% TritonX, and 2% BSA. […]

[4] = system: HES3 NKX2-5:GFP hESC-derived mesoderm; assay: Specification of mesoderm populations to an atrial fate by ROH or RA (day 20 flow cytometry and qRT-PCR); conditions: day 4, 5B/4A induced
[5] = day 3 RA-treated mesoderm versus non-treated control

CC1=C(/C=C/C(C)=C/C=C/C(C)=C/C(=O)O)C(C)(C)CCC1 [RA, all trans retinoic acid]
expression of KCNJ3, CACNA1D and NR2F2 in VI versus AI cardiomyocytes ([1]; 4 mM RA): Comparable expression levels
expression of ventricular genes MYL2 and IRX4 in the VI population ([1]; RA 1-2 mM): completely suppress
expression of MYL2 and KCNJ3 ([1]; RA added at later stages (days 7 and 12)): no effect
expression level of KCNA5 in cardiomyocytes from VI EBs ([1]; RA increased from 0.5 to 1-2 mM): did increase
expression of KCNJ3, CACNA1D and NR2F2 in VI cardiomyocytes to levels of AI cells ([1]; RA up to 2 mM): failed to increase
atrial specification (MLC2V+, IRX4, KCNJ3, NR2F2) ([2]; 5B/12A-induced EBs, treated days 3-5): able to induce an atrial-like cardiomyocyte phenotype
atrial specification (MLC2V+ frequency, IRX4, KCNJ3) ([2]; ALDH+PDGFRalpha+ fraction, day 4, 3B/2A induced, 24 hr treatment): similar
frequency of NKX2-5+SIRPa+ cells in day 20 populations ([3]; RA): dramatic reduction
proportion of NKX2-5-GFP− cells ([3]; RA treatment days 3-5, day 20): did not influence
frequency of COUPTFII+ cells [3, 5]: much higher frequency
proportion of MLC2V+ cells [3, 5]: dramatic reduction
atrial specification (MLC2V+, IRX4, NPPA, KCNJ3, NR2F2) ([4]; CD235a+ALDH− fraction): responded to RA
atrial specification (MLC2V+, IRX4, NPPA, KCNJ3, NR2F2) ([4]; CD235a−ALDH+ fraction): responded to RA
